Results taken from ChEMBL document CHEMBL4602730, “In Vitro and in Vivo Evaluation of Membrane-Active Flavone Amphiphiles: Semisynthetic Kaempferol-Derived Antimicrobials against Drug-Resistant Gram-Positive Bacteria” (J Med Chem, 2020).
In brackets after ≈: the same amount, converted by molar mass.

Columns and labels:
[1] = system: Staphylococcus aureus; test: Antibacterial activity against Staphylococcus aureus ATCC 29213 assessed as inhibition of bacterial growth incubated for 24 hrs by broth microdilution method; assay type: functional; settings: ATCC 29213, 24 h
[2] = system: Staphylococcus aureus; test: Antibacterial activity against methicillin-resistant Staphylococcus aureus N315 assessed as inhibition of bacterial growth incubated for 24 hrs by broth microdilution method; assay type: functional; settings: N315, 24 h
[3] = system: Staphylococcus aureus; test: Antibacterial activity against methicillin-resistant Staphylococcus aureus NCTC 10442 assessed as inhibition of bacterial growth incubated for 24 hrs by broth microdilution method; assay type: functional; settings: NCTC 10442, 24 h
[4] = Induction of hemolysis in rabbit RBC incubated for 1 hr; assay type: cell-based, Oryctolagus cuniculus, Erythrocyte; settings: rabbit red blood cells (erythrocytes)

Structure (SMILES): CCN(CC)CCCCCOc1c(-c2ccc(OCC=C(C)C)cc2)oc2cc(OCC=C(C)C)cc(O)c2c1=O
- MIC [1]: 22.2 µM (≈ 12.5 µg/mL)
- MIC [2]: 22.2 µM (≈ 12.5 µg/mL)
- MIC [3]: 22.2 µM (≈ 12.5 µg/mL)
- HC50 at 1 h [4]: 99 µM

Structure (SMILES): CCCCCOc1ccc(-c2oc3cc(OCCCCC)cc(O)c3c(=O)c2O)cc1
- MIC [1]: > 117 µM
- MIC [2]: > 117 µM
- MIC [3]: > 117 µM
- HC50 at 1 h [4]: > 469 µM

Structure (SMILES): CCCOc1ccc(-c2oc3cc(OCCC)cc(O)c3c(=O)c2O)cc1
- MIC [1]: > 135 µM
- MIC [2]: > 135 µM
- MIC [3]: > 135 µM
- HC50 at 1 h [4]: > 540 µM

Structure (SMILES): CCCOc1ccc(-c2oc3cc(OCCC)cc(O)c3c(=O)c2OCCCN(CC)CC)cc1
- MIC [1]: 12.9 µM (≈ 6.24 µg/mL)
- MIC [2]: 12.9 µM (≈ 6.24 µg/mL)
- MIC [3]: 12.9 µM (≈ 6.24 µg/mL)
- HC50 at 1 h [4]: 121 µM

Structure (SMILES): CCCCCCCOc1ccc(-c2oc3cc(OCCCCCCC)cc(O)c3c(=O)c2O)cc1
- MIC [1]: > 104 µM
- MIC [2]: > 104 µM
- MIC [3]: > 104 µM
- HC50 at 1 h [4]: > 414 µM

Structure (SMILES): CC(C)=CCOc1ccc(-c2oc3cc(OCC=C(C)C)cc(O)c3c(=O)c2OCCCN2CCSCC2)cc1
- MIC [1]: > 88.4 µM
- MIC [2]: > 88.4 µM
- MIC [3]: > 88.4 µM
- HC50 at 1 h [4]: > 354 µM

Structure (SMILES): CCCCCCCCNCCCOc1c(-c2ccc(OCC=C(C)C)cc2)oc2cc(OCC=C(C)C)cc(O)c2c1=O
- MIC [1]: > 84.5 µM
- MIC [2]: 21.1 µM (≈ 12.5 µg/mL)
- MIC [3]: > 84.5 µM
- HC50 at 1 h [4]: > 338 µM

Structure (SMILES): CCN(CC)CCCNC(=O)COc1c(-c2ccc(OCC=C(C)C)cc2)oc2cc(OCC=C(C)C)cc(O)c2c1=O
- MIC [1]: 10.5 µM (≈ 6.22 µg/mL)
- MIC [2]: 10.5 µM (≈ 6.22 µg/mL)
- MIC [3]: 21.1 µM (≈ 12.5 µg/mL)
- HC50 at 1 h [4]: 80.3 µM

Structure (SMILES): CCCCN(CCCC)CCCOc1c(-c2ccc(OCC=C(C)C)cc2)oc2cc(OCC=C(C)C)cc(O)c2c1=O
- MIC [1]: > 84.5 µM
- MIC [2]: > 84.5 µM
- MIC [3]: > 84.5 µM
- HC50 at 1 h [4]: > 338 µM

Structure (SMILES): CCCCCCCOc1ccc(-c2oc3cc(OCCCCCCC)cc(O)c3c(=O)c2OCCCN(CC)CC)cc1
- MIC [1]: > 83.9 µM
- MIC [2]: > 83.9 µM
- MIC [3]: > 83.9 µM
- HC50 at 1 h [4]: > 336 µM

Structure (SMILES): O=c1c(O)c(-c2ccc(O)cc2)oc2cc(O)cc(O)c12 [KAEMPFEROL]
- MIC [1]: > 175 µM
- MIC [2]: > 175 µM
- MIC [3]: > 175 µM

Structure (SMILES): CCCCCCCCCOc1ccc(-c2oc3cc(OCCCCCCCCC)cc(O)c3c(=O)c2OCCCN(CC)CC)cc1
- MIC [1]: > 76.7 µM
- MIC [2]: > 76.7 µM
- MIC [3]: > 76.7 µM
- HC50 at 1 h [4]: > 307 µM

Structure (SMILES): CC(C)=CCOc1ccc(-c2oc3cc(OCC=C(C)C)cc(OCC(=O)NCCCN(C)C)c3c(=O)c2OCC(=O)NCCCN(C)C)cc1
- MIC [1]: 35.4 µM (≈ 25 µg/mL)
- MIC [2]: 70.7 µM (≈ 50 µg/mL)
- MIC [3]: 70.7 µM (≈ 50 µg/mL)
- HC50 at 1 h [4]: > 283 µM

Structure (SMILES): CC[N+](C)(CC)CCCOc1c(-c2ccc(OCC=C(C)C)cc2)oc2cc(OCC=C(C)C)cc(O)c2c1=O
- MIC [1]: 4.6 µM
- MIC [2]: 2.3 µM
- MIC [3]: 4.6 µM
- HC50 at 1 h [4]: 88.2 µM

Structure (SMILES): CC(C)=CCOc1ccc(-c2oc3cc(OCC=C(C)C)cc(O)c3c(=O)c2O)cc1
- MIC [1]: > 118 µM
- MIC [2]: > 118 µM
- MIC [3]: > 118 µM
- HC50 at 1 h [4]: > 473 µM

Structure (SMILES): CCN(CC)CCCNC(=O)COc1c(-c2ccc(OCC=C(C)C)cc2)oc2cc(OCC=C(C)C)cc(OCC(=O)NCCCN(CC)CC)c2c1=O
- MIC [1]: > 65.5 µM
- MIC [2]: > 65.5 µM
- MIC [3]: > 65.5 µM
- HC50 at 1 h [4]: > 262 µM

Structure (SMILES): CCN(CC)CCCCCCCCCCOc1c(-c2ccc(OCC=C(C)C)cc2)oc2cc(OCC=C(C)C)cc(O)c2c1=O
- MIC [1]: > 78.9 µM
- MIC [2]: > 78.9 µM
- MIC [3]: > 78.9 µM
- HC50 at 1 h [4]: > 316 µM

Structure (SMILES): COC(=O)[C@H](Cc1c[nH]cn1)NC(=O)COc1c(-c2ccc(OCC=C(C)C)cc2)oc2cc(OCC=C(C)C)cc(O)c2c1=O
- MIC [1]: > 79.2 µM
- MIC [2]: > 79.2 µM
- MIC [3]: > 79.2 µM
- HC50 at 1 h [4]: > 317 µM

Structure (SMILES): CC(C)=CCOc1ccc(-c2oc3cc(OCC=C(C)C)cc(O)c3c(=O)c2OCCC[N+](C)(C)C)cc1
- MIC [1]: 4.8 µM
- MIC [2]: 2.4 µM
- MIC [3]: 4.8 µM
- HC50 at 1 h [4]: 77.3 µM
